What was measured:
MCF-7 cells [1] = assay: Intracellular ROS, DCFH-DA assay; type: cell-based, human; details: 5 μM, 11-W lamp for 30 min
Protocol: The MCF-7 cells were seeded in eight-well chambered coverglasses (lab-Tek, Nunc, USA) and six-well plate, incubated for 24 h in 5% CO2 at 37° C. Next, added to compounds (bpy-Rho and M-Rho) in medium make the final concentrations of 5 μM compounds. After irradiation treatment (11 W lamp 30 min), cells were promptly washed with PBS and incubated with 4 μg/ml 2′7′-dichloro-fluoreseindiacetate (DCFH-DA) for 30 min, and intracellular ROS generation was evaluated by flow cytometry and confocal microscopy.

[2] = Singlet oxygen emission at about 1270 nm; type: physicochemical; details: in CH3CN
Protocol: Singlet oxygen emission was detected by using FLS-980 spectrofluorometer. All of the compounds were dissolved in CH3CN. The absorbance at 532 nm was adjusted to be around 1.7 for all the compounds. Upon measurements, an 850 nm long-pass filter was inserted in between the sample and the detector to avoid many high-order diffraction from the visible emission.

[3] = Singlet oxygen quantum yield; type: physicochemical
Excerpt: The long-lived triplet excited state of rhodamine is anticipated to interact with molecular oxygen (^3O2) to form singlet oxygen (^1O2), which is useful for PDT applications. The ability of M-Rho to produce ^1O2 has been evaluated spectroscopically by the observation of ^1O2 emission at about 1270 nm (inset of FIG. 2b). Remarkable ^1O2 emission is observed in Ir-Rho, Re-Rho and Pt-Rho but not for Rh-Rho and bpy-Rho. By monitoring the diminution of the characteristic absorption of the ^1O2 scavenger 1,3-diphenylisobenzofuran (DPBF) at 410 nm, ^1O2 generation is also confirmed and the corresponding quantum yields (ϕΔ) for the complexes are determined (Table 1). […] The rate and quantum yield of ^1O2 generation are found to vary with different metal systems.
Singlet oxygen quantum yield was determined by comparing the ^1O2 emission intensity of Rose Bengal and M-Rho.

4T1 = assay: Selective uptake by flow cytometry; type: cell-based, mouse; details: 4T1, 5 μM, 2 h incubation
Protocol: (§1) Tumor cells (MCF-7/A 549/HepG2/4T1) and normal cells (MCF-10A/293T/L02/NIH-3T3) (1×10^4 cells) was cultured in six-well plate for 12 h. and then Cells were changed with a medium containing 5 μM complexes (rho-bpy, rho-bpy-Pt-ph, rho-bpy-Rh-ppy, rho-bpy-Re and rho-bpy-Ir-ppy). Cells were washed three times with PBS after 2 h of incubation, Then the cells were harvested, and the fluorescence intensity of complexes were recorded by flow cytometer.

[4] = Steady-state emission spectra and absolute luminescence quantum yield; type: physicochemical
Protocol: (§2) The UV-vis absorption spectra were taken on Cary 60 UV-vis spectrophotometer. Steady-state emission spectra at room temperature were recorded on an Edinburgh Instruments FLS980 fluorescence spectrometer. Quartz cuvettes (path length=1 cm) were used in all spectrophotometric and fluorometric measurements. NMR spectra were recorded on a Bruker AVANCE 400 (^1H NMR for 400 MHz and ^13C NMR for 100 MHz) Fourier transform NMR spectrometer with chemical shifts reported relative to tetramethylsilane, (CH3)4Si. High-resolution MS spectra were performed on an Orbitrap Fusion Tribrid mass spectrometer. Elemental analyses of the newly synthesized complexes were preformed on a Elementar Vario EL Cube elemental analyzer at Sun Yat-sen University. The nanosecond time-resolved transient-difference absorption spectra were detected by using Edinburgh LP920 instruments (Edinburgh Instruments, U.K.). All solutions for transient absorption studies were degassed on a high-vacuum line in a two-compartment cell consisting of a 10-ml Pyrex bulb and a 1-cm or 4-mm path length quartz cuvette and sealed from the atmosphere by a Bibby Rotaflo HP6 Teflon stopper. The solutions were rigorously degassed with at least four successive freeze-pump-thaw cycles. Emission lifetime measurements were performed using a conventional laser system. The excitation source used was a 355-nm output (third harmonic) of a Spectra-Physics Quanta-Ray Q-switched GCR-150-10 pulsed Nd-YAG laser. Luminescence decay signals were detected by a Hamamatsu R928 PMT and recorded on a Tektronix Model TDS-620A (500 MHz, 2 GS/s) digital oscilloscope and analyzed using a program for exponential fits. Absolute quantum yields were measured by HAMAMATSU-C11347.

[5] = UV/Vis absorption spectra; type: physicochemical
Protocol: as §2

[6] = Nanosecond transient absorption difference spectroscopy; type: physicochemical; details: measured by transient absorption in CH3CN
Excerpt: Nanosecond transient absorption (TA) difference spectroscopy was employed to investigate the triplet excited states of M-Rho (FIG. 2c and FIGS. 16-19). Upon pulsed laser excitation at 355 nm, an intense bleaching signal at 575 nm with lifetime in microsecond range is observed, which is ascribed to the depletion of ground state rhodamine absorption. Such a long-lived excited state should be localized on the rhodamine unit, and is assigned as the ^3IL excited state of rhodamine in M-Rho. The absorption signal at 610-800 nm is due to the rhodamine ^3IL excited state absorption. In contrast, no signal from this triplet excited state is detected in bpy-Rho because of the lack of efficient ISC. On the other hand, only the transient absorption signals originating from the corresponding ^3MLCT excited states are observed in the rhodamine-free analogues (FIGS. 20-21).
as §2

MCF-7 cells [7] = assay: Phototoxicity, CCK-8 assay and calcein-AM/PI staining; type: cell-based, human; details: 11-W lamp
Protocol: • 1. MCF-7 cells were seeded at 8×10^3-1×10^4 cells/well in 96 well plates then incubated for 24 h in 5% CO2 at 37° C. The stock solutions of the complexes(10 mM in DMSO) were diluted to appropriate concentrations with the complete medium and added to the cells to give final complexes concentrations (1, 2, 5, 10 μM). After incubation for 2 h, the well plate were irradiated with 11 W lamp 30 min. To achieve more uniform irradiation, the entire well plate was gently orbited on the shaker. After the irradiation, the cells were again incubated for 2 h, after which the cytotoxicity was determined by CCK8 assay and expressed as a percent of the controls (cells exposed to light in the absence of the complexes). • 2. The MCF-7 cells(500 cells/well) were seeded in eight-well chambered coverglasses (lab-Tek, Nunc, USA), and then incubated for 24 h in 5% CO2 at 37° C. Next, added to complexes(rho-bpy, rho-bpy-Pt-ph, rho-bpy-Rh-ppy, rho-bpy-Re and rho-bpy-Ir-ppy) in medium make the final concentrations of 5 μM complexes. After incubation for 2 h, the eight-well plate were irradiated with 11 W lamp 30 min. The flowing, fixed with 4% paraformaldehyde solution. After staining with calcein-AM and (Propidium iodide) PI, Leica TCS SP5 confocal laser scanning microscope (GER) was used to observe the viable and dead cells.

tumor cells = assay: Selective uptake by flow cytometry, tumor cells versus normal cells; type: cell-based; details: among bpy-Rho and M-Rho
Protocol: as §1

CCN(CC)c1ccc2c(-c3ccnc(-c4cc(C)ccn4)c3)c3ccc(=[N+](CC)CC)cc-3oc2c1.F[P-](F)(F)(F)(F)F.F[P-](F)(F)(F)(F)F.c1ccc(-c2cccc[c]2[Ir+][c]2ccccc2-c2ccccn2)nc1 [Ir-Rho]
intracellular ROS generation (MCF-7 cells [1]): highest ROS generation ability | 1O2 emission at about 1270 nm [2]: Remarkable | rate and quantum yield of 1O2 generation, ranking ([3]; among M-Rho): highest QY | ΦΔ (singlet oxygen quantum yield) ([3]; relative to rose bengal (ΦΔ = 0.76)): 0.62 | contrast index (CI) (4T1): higher than 2.5 | λem ([4]; Conc. = 1.0 × 10^−6M in MeOH): 629 nm | Φlum ([4]; absolute luminescence quantum yield measured by HAMAMATSU-C11347): 0.014 | λabs ([5]; absorption maximum, in CH3CN): 575 nm | ε × 10^4 ([5]; molar extinction coefficient at the absorption maxima, values × 10^4): 8.75 M^−1 cm^−1 | TT (triplet-state lifetimes) [6]: 0.82 μs | cell death upon irradiation (MCF-7 cells [7]; concentration of 10 μM): Significant cell death | PDT performance, ranking (MCF-7 cells [7]; among M-Rho): best PDT performance | uptake efficiency and affinity to tumor cells, ranking (tumor cells): highest uptake efficiency and affinity

— patent publication US11214586B2, “Rhodamine triplet state complex and preparation and photodynamic therapy (PDT) study thereof” (SOUTHERN UNIVERSITY OF SCIENCE AND TECHNOLOGY, priority 2018, dated 2022)
